The values that follow come from US20020165136A1, “MHC peptides and methods of use” (Thomas Jefferson University, priority 1996, published 2002).

Experiment [1] deals with C6 cells. Briefly: In vivo apoptosis assay: peptide-pretreated C6 cells in a diffusion chamber implanted s.c. in rats. Set-up: species or system rat. As to conditions: for % Recovery (24 hs): peptide at 5×10^−M, 24 hs in diffusion chamber, % of original inoculum; for Recovery (%): C6 rat glioblastoma cells pre-treated with 50 μM peptide 24 hours in serum-free medium, chamber in rats 24 hours. Here is the method:
(§1) The test for apoptosis in vivo was based on the use of the diffusion chamber described in detail by Resnicoff, M., et al., Cancer Res. 55: 2463-2469 (1995). According to this method, the cells are placed in a diffusion chamber that allows the passage of nutrients, antigens, antibodies, etc., but not of intact cells. The sterilized chamber is loaded with cells and then inserted into the subcutaneous tissue of rats or mice; after 24 hours, (or at other times, depending on the experiment) the chamber is removed and the number of cells in the chamber is determined with a hemocytometer, and expressed as a percentage of the original inoculum. The cells are also stained with trypan blue for viability; in the experience of the inventors, surviving cells are >95% viable.
(§2) For in vivo effects, 5×10^5 cells (C6 and CaOV-3 were both used for these studies) were placed in diffusion chambers and implanted into the s.c. tissue of the animals. Once the skin was sutured, the peptides were injected s.c. next to the chambers at the indicated concentrations in a final volume of 0.2 ml. Twenty-four hours later, the chambers were removed from the animals and the cells were quantitatively recovered.
(from gp100), involved in regression of human melanoma (Kawakami et al. 1994); 2) […], recognized by melanoma-specific human CTL lines (Cox et al, 1994); and 3) […], derived from connexin 37, that induces CTL responses against murine lung carcinoma (Mandelboim, et al., 1994). For each of these peptides, a control peptide having the same amino acid composition, but in scrambled order (controls), was also tested. C6 cells were preincubated with the peptides at a concentration of 10^−5M and transferred to the diffusion chamber (see Methods and Materials). Cell number was determined after 24 hours in the diffusion chamber transplanted into the subcutaneous tissue of rats.
Two of the three peptides were selected for further studies of the effects of mutations on the ability to induce apoptosis. Several point mutations were introduced into the peptide […]. […] Mutations at tyrosine in position 1, or the two prolines in positions 4 and 6, effectively inactivated peptide no. 2. An exception to this observation was seen when the prolines were replaced by an N-methyl amino acid. Mutations at E3 or T8 had little effect, but when both residues were mutated, recovery increased to 77%.
In order to determine the minimum concentration of these peptides that still would induce apoptosis in vivo, C6 cells were preincubated with different concentrations of the […] and D-amino acid […] peptides and recovery of viable cells was determined after 24 hours in the diffusion chamber.

Experiment [2] relates to C6 cells. The experiment in a line: Protection from subsequent challenge with wild type C6 cells. It is filed as in vivo, rat. Here is the method: Synthetic peptide sequences listed above were tested at 5×10^−M on C6 cells. Tests for apoptosis and for protection from subsequent challenge with C6 cells are described herein. Point mutations are shown in bold characters.

Experiment [3] relates to CaOV3 cells (human ovarian carcinoma cells). The experiment in a line: Diffusion chamber assay, CaOV3 cells in mice, peptide injected s.c. next to chamber. It is filed as in vivo, mouse. As to conditions: Balb/c mice, 0.2 ml of 0.05 mM peptide s.c. next to chamber, 24 hours. Here is the method: as §1, §2
Human ovarian carcinoma cells CaOV3 (Resnicoff, et al. (1993)) were loaded into a diffusion chamber, and the chamber was inserted into the subcutaneous tissue of mice. The animals were then injected, also subcutaneously next to the chamber, with 0.2 ml of a 0.05 mM solution of four different peptides, and the number of cells was determined 24 hours later. […] The control peptide had no effect, and the number of cells more than doubled. CaOV3 cells also undergo apoptosis, as determined by FACS analysis.
CaOV3 cells (human ovarian carcinoma cells, 5×10^5 cells) were placed without any previous treatment into diffusion chambers that were then implanted into the subcutaneous tissue of Balb/c mice. Animals were then injected subcutaneously next to the chambers either with 0.2 ml of a 0.05 mM solution of one of the three test peptides or with 0.2 ml of a 0.05 mM solution of the control peptide.

Square brackets hold non-standard residues; d marks the D form. Ends that are not written are not given here. NMeA = CN[C@@H](C)C(=O)O

Take YLEPGAVTA: the “% Recovery (24 hs)” value in experiment [1] (C6 cells) was determined as 260.0%. Also, the “Protection from wild type cell challenge” value in experiment [2] is “no”. Besides, the “Percent Recovery” value in experiment [3] is 280%.
As for “ATVPGPELY (D-amino acids) [ATVPGPELY (D-amino acid)]”, the “ability to induce apoptosis (in words)” value in experiment [1] (C6 cells, diffusion chamber, preincubation at 10^−5 M) was “as effective as the L-amino acid sequences”. Besides, in experiment [1] (C6 cells), the “% Recovery (24 hs)” value stood at 6.0%. Besides, the “Protection from wild type cell challenge” value in experiment [2] is on record as “yes”.
With “TLGIVCPI [HPV-16 E786-93, MHC Class I peptide derived from Human Papilloma Virus Type 16 (HPV-16) E7 protein]”, the “Recovery (%)” value in experiment [1] worked out at 27%.
Turning to YLEAGPVTA [point mutant of …], in experiment [1] (C6 cells), the “% Recovery (24 hs)” value is given as 224.0%. For the same sequence, in experiment [2], the “Protection from wild type cell challenge” value is reported as “no”.
Consider “LLDGTATLRL [MHC Class I peptide derived from gp100, human melanoma specific antigen]”, for which the “% Recovery (24 hs)” value in experiment [1] (C6 cells) was determined as 5.0%. Besides, in experiment [2], the “Protection from wild type cell challenge” value was “yes”.
Consider “YLEXGXVTA (X: N-Methyl-A) (YLE[NMeA]G[NMeA]VTA) [… with prolines replaced by an N-methyl amino acid]”, for which the “% Recovery (24 hs)” value in experiment [1] (C6 cells) was 6.5%. For the same sequence, the “Protection from wild type cell challenge” value in experiment [2] is given as “yes”.
As to YLEPAPVTA [point mutant of …], the “% Recovery (24 hs)” value in experiment [1] (C6 cells) is listed as 70.0%. Also, in experiment [2], the “Protection from wild type cell challenge” value is “no”.
As to YLEPGPVAA [point mutant of …], in experiment [1] (C6 cells), the “% Recovery (24 hs)” value is recorded as 9.3%. Further, in experiment [2], the “Protection from wild type cell challenge” value is on record as “yes”.
YAEPGPVTA [point mutant of …]: the “% Recovery (24 hs)” value in experiment [1] (C6 cells) is on record as 186.0%. For the same sequence, the “Protection from wild type cell challenge” value in experiment [2] is recorded as “no”.
As to YLAPGPVTA [point mutant of …], the “% Recovery (24 hs)” value in experiment [1] (C6 cells) is listed as 7.4%. In experiment [2], the “Protection from wild type cell challenge” value is reported as “yes”.
For YLEPGPATA [point mutant of …], in experiment [1] (C6 cells), the “% Recovery (24 hs)” value came out at 11.0%. The “Protection from wild type cell challenge” value in experiment [2] is “yes”.
On to ALEPGPVTA [point mutant of …], for which the “% Recovery (24 hs)” value in experiment [1] (C6 cells) came out at 224.0%. Also, the “Protection from wild type cell challenge” value in experiment [2] was “no”.
In the same order, the values of “YLRPGPVRA [double mutant (E3 and T8) of …]” are 77.0% and “no”.
With “YMLDLQPETT [HPV-16 E711-20, MHC Class I peptide derived from Human Papilloma Virus Type 16 (HPV-16) E7 protein]”, the “Recovery (%)” value in experiment [1] is on record as 13%.
Take YLEPGPVKA [point mutant of …]: the “% Recovery (24 hs)” value in experiment [1] (C6 cells) is given as 12.0%. In experiment [2], the “Protection from wild type cell challenge” value was “yes”.
